Source: patent US10167262B2, “Herbicidal substituted 3-arylpyrazoles” (FMC CORPORATION, priority 2014, dated 2019)

Experiments:
Assay in all cases: Test E pre-/postemergence greenhouse test, plant response rating 0-100
Assay type in all cases: in vivo
Conditions in all cases: Preemergence, scale 0 to 100
[1] = system: nightshade (eastern black nightshade, Solanum ptycanthum)
Procedure, shortened: (§1)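 Greenhouse pot assay, two application timings. Pre- to silt loam at planting; post- to 1–4-leaf plants. Visual 0–100 score at 14–21 d.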

kochia (Kochia scoparia) = system: kochia (Kochia scoparia)
Procedure, shortened: as §1

[2] = system: velvetleaf (Abutilon theophrasti)
Procedure, shortened: as §1

[3] = system: lambsquarters (Chenopodium album)
Procedure, shortened: as §1

[4] = system: cocklebur (common cocklebur, Xanthium strumarium)
Procedure, shortened: as §1

Structure (SMILES): O=Cn1cc(C(=O)c2ccccc2)c(-c2cc(Cl)cc(Cl)c2)n1 [Compound 28]
- Nightshade plant response rating ([1]; 31 g ai/ha): 0
- Nightshade plant response rating ([1]; 62 g ai/ha): 0
- Nightshade plant response rating ([1]; 125 g ai/ha): 0
- Nightshade plant response rating ([1]; 250 g ai/ha): 0
- Nightshade plant response rating ([1]; 500 g ai/ha): 0
- Kochia plant response rating (kochia (Kochia scoparia); 31 g ai/ha): 15
- Kochia plant response rating (kochia (Kochia scoparia); 62 g ai/ha): 20
- Kochia plant response rating (kochia (Kochia scoparia); 125 g ai/ha): 40
- Kochia plant response rating (kochia (Kochia scoparia); 250 g ai/ha): 40
- Kochia plant response rating (kochia (Kochia scoparia); 500 g ai/ha): 85
- Velvetleaf plant response rating ([2]; 31 g ai/ha): 0
- Velvetleaf plant response rating ([2]; 62 g ai/ha): 0
- Velvetleaf plant response rating ([2]; 125 g ai/ha): 0
- Velvetleaf plant response rating ([2]; 250 g ai/ha): 40
- Velvetleaf plant response rating ([2]; 500 g ai/ha): 100
- Lambsquarters plant response rating ([3]; 31 g ai/ha): 0
- Lambsquarters plant response rating ([3]; 62 g ai/ha): 95
- Lambsquarters plant response rating ([3]; 125 g ai/ha): 100
- Lambsquarters plant response rating ([3]; 250 g ai/ha): 100
- Lambsquarters plant response rating ([3]; 500 g ai/ha): 100

Structure (SMILES): CCn1cc(C(=O)c2ccccc2)c(-c2cc(Cl)cc(Cl)c2)n1 [Compound 31, [3-(3,5-dichlorophenyl)-1-ethyl-1H-pyrazol-4-yl]phenylmethanone]
- Nightshade plant response rating ([1]; 62 g ai/ha): 0
- Nightshade plant response rating ([1]; 125 g ai/ha): 0
- Nightshade plant response rating ([1]; 250 g ai/ha): 0
- Nightshade plant response rating ([1]; 500 g ai/ha): 50
- Kochia plant response rating (kochia (Kochia scoparia); 62 g ai/ha): 35
- Kochia plant response rating (kochia (Kochia scoparia); 125 g ai/ha): 25
- Kochia plant response rating (kochia (Kochia scoparia); 250 g ai/ha): 50
- Kochia plant response rating (kochia (Kochia scoparia); 500 g ai/ha): 70
- Velvetleaf plant response rating ([2]; 62 g ai/ha): 65
- Velvetleaf plant response rating ([2]; 125 g ai/ha): 50
- Velvetleaf plant response rating ([2]; 250 g ai/ha): 80
- Velvetleaf plant response rating ([2]; 500 g ai/ha): 80
- Lambsquarters plant response rating ([3]; 62 g ai/ha): 0
- Lambsquarters plant response rating ([3]; 125 g ai/ha): 100
- Lambsquarters plant response rating ([3]; 250 g ai/ha): 100
- Lambsquarters plant response rating ([3]; 500 g ai/ha): 100

Structure (SMILES): O=C(c1ccccc1)c1cn(CO)nc1-c1cc(Cl)cc(Cl)c1 [Compound 15, [3-(3,5-dichlorophenyl)-1-(hydroxymethyl)-1H-pyrazol-4-yl]phenylmethanone]
- Kochia plant response rating (kochia (Kochia scoparia); 31 g ai/ha): 0
- Kochia plant response rating (kochia (Kochia scoparia); 62 g ai/ha): 40
- Kochia plant response rating (kochia (Kochia scoparia); 125 g ai/ha): 20
- Kochia plant response rating (kochia (Kochia scoparia); 250 g ai/ha): 75
- Kochia plant response rating (kochia (Kochia scoparia); 500 g ai/ha): 80
- Cocklebur plant response rating ([4]; 31 g ai/ha): 0
- Cocklebur plant response rating ([4]; 62 g ai/ha): 0
- Cocklebur plant response rating ([4]; 125 g ai/ha): 0
- Velvetleaf plant response rating ([2]; 31 g ai/ha): 20
- Velvetleaf plant response rating ([2]; 62 g ai/ha): 25
- Velvetleaf plant response rating ([2]; 125 g ai/ha): 35
- Velvetleaf plant response rating ([2]; 250 g ai/ha): 65
- Velvetleaf plant response rating ([2]; 500 g ai/ha): 100

Structure (SMILES): O=C(c1ccccc1)c1cn(S(=O)(=O)CCl)nc1-c1cc(Cl)cc(Cl)c1 [Compound 1]
- Kochia plant response rating (kochia (Kochia scoparia); 31 g ai/ha): 0
- Kochia plant response rating (kochia (Kochia scoparia); 62 g ai/ha): 0
- Kochia plant response rating (kochia (Kochia scoparia); 125 g ai/ha): 0
- Kochia plant response rating (kochia (Kochia scoparia); 250 g ai/ha): 50
- Kochia plant response rating (kochia (Kochia scoparia); 500 g ai/ha): 98
- Cocklebur plant response rating ([4]; 500 g ai/ha): 0
- Velvetleaf plant response rating ([2]; 31 g ai/ha): 35
- Velvetleaf plant response rating ([2]; 62 g ai/ha): 40
- Velvetleaf plant response rating ([2]; 125 g ai/ha): 50
- Velvetleaf plant response rating ([2]; 250 g ai/ha): 35
- Velvetleaf plant response rating ([2]; 500 g ai/ha): 50

Structure (SMILES): COCC(=O)n1cc(C(=O)c2ccccc2)c(-c2cc(Cl)cc(Cl)c2)n1 [Compound 16, 1-[4-benzoyl-3-(3,5-dichlorophenyl)-1H-pyrazol-1-yl]-2-methoxyethanone]
- Kochia plant response rating (kochia (Kochia scoparia); 31 g ai/ha): 0
- Kochia plant response rating (kochia (Kochia scoparia); 62 g ai/ha): 0
- Kochia plant response rating (kochia (Kochia scoparia); 125 g ai/ha): 0
- Kochia plant response rating (kochia (Kochia scoparia); 250 g ai/ha): 50
- Kochia plant response rating (kochia (Kochia scoparia); 500 g ai/ha): 75
- Velvetleaf plant response rating ([2]; 31 g ai/ha): 0
- Velvetleaf plant response rating ([2]; 62 g ai/ha): 40
- Velvetleaf plant response rating ([2]; 125 g ai/ha): 85
- Velvetleaf plant response rating ([2]; 250 g ai/ha): 100
- Velvetleaf plant response rating ([2]; 500 g ai/ha): 100

Structure (SMILES): O=C(c1ccccc1)c1cn(S(=O)(=O)C(F)(F)F)nc1-c1cc(Cl)cc(Cl)c1 [Compound 2]
- Kochia plant response rating (kochia (Kochia scoparia); 31 g ai/ha): 0
- Kochia plant response rating (kochia (Kochia scoparia); 62 g ai/ha): 0
- Kochia plant response rating (kochia (Kochia scoparia); 125 g ai/ha): 0
- Kochia plant response rating (kochia (Kochia scoparia); 250 g ai/ha): 65
- Kochia plant response rating (kochia (Kochia scoparia); 500 g ai/ha): 90
- Cocklebur plant response rating ([4]; 31 g ai/ha): 0
- Cocklebur plant response rating ([4]; 62 g ai/ha): 0
- Cocklebur plant response rating ([4]; 125 g ai/ha): 0
- Cocklebur plant response rating ([4]; 250 g ai/ha): 0
- Velvetleaf plant response rating ([2]; 31 g ai/ha): 0
- Velvetleaf plant response rating ([2]; 62 g ai/ha): 0
- Velvetleaf plant response rating ([2]; 125 g ai/ha): 0
- Velvetleaf plant response rating ([2]; 250 g ai/ha): 0
- Velvetleaf plant response rating ([2]; 500 g ai/ha): 100
